Columns and labels:
Assay type in all cases: cell-based, murine
[1] = tested on: extracellular signal-regulated kinase (ERK); experiment: Western blot of LPS-induced ERK phosphorylation in BV-2 cells; settings: 5–20 µM; LPS 30 min, similar pattern at 24 h
Procedure: BV-2 cells were seeded in a 6-well plate at a density of 6 × 10^5 cells/well and exposed to LPS (100 ng/mL) in the presence or absence of compound 3 for required time. After treatment, cells were collected and lysed in cell lysis buffer (50 mM Tris–HCl, pH 8.0, 0.1% SDS, 150 mM NaCl, 1% NP-40, 0.02% sodium azide, 0.5% sodium deoxycholate, 100 µg/mL PMSF, and […]) for 24 h at 4 °C. The protein content was measured using a Bradford assay. Equal amounts of protein (30 µg) were separated using SDS-PAGE and transferred to a nitrocellulose membrane. The membrane was blocked for 1 h with 5% skim milk in tris-buffered saline with Tween-20 (TBST) and then incubated for 12 h with primary antibodies against α-tubulin (Sigma-Aldrich Cat. no: T5168), iNOS (Bioscience Cat. no: 610333, COX-2 (Santa Cruz Cat. no: sc-1745), ERK (Cell Signaling Cat. no: 9107s), pERK (Cell Signaling Cat. no: 5013s), JNK (Cell Signaling Cat. no: 9252s), pJNK (Cell Signaling Cat. no: 4671s), p38 (Cell Signaling Cat. no: 8690s), and pP38 (Cell Signaling Cat. no: 9211s), followed by incubation for 1 h with horseradish peroxidase-conjugated secondary antibodies (Cell Signaling) at 15 °C. […]
Fig. 3 Effect of compound 3 on MAPK pathway in LPS-induced BV-2 cells. […] The phosphorylation of p38, JNK, and ERK was measured by western blotting (a–c). […]

BV2 cells = experiment: β-amyloid induced BV2 cell cytotoxicity
Description: (§1) Here, we have investigated whether the compound 3 has any direct protective effects on microglia and neurons against LPS and TNF-α induced direct toxicity. As the aim of this study is to check the effectiveness of compound 3 against neurodegenerative conditions, here we checked the effect of this compound to protect microglial cells against β-amyloid induced cytotoxicity as shown in Fig. 5a. […] LPS treatment was unable to induce cellular toxicity to N2a cells (Fig. 5b). […] Compound 3 mediated neuroprotection in N2a cells is due to the inhibition of proinflammatory cytokines produced by LPS activated microglia.
Fig. 5 Cytoprotection of compound 3 in β-amyloid induced BV2 cell and LPS and TNF-α induced N2a cell toxicity

N2a cells = experiment: TNF-α induced N2a cytotoxicity, direct treatment
Procedure: N2a cells were used as a representative neuronal cell line for the examination of apoptotic neuron viability using direct treatment of compound 3 with TNF-α activation as well as conditioned media (CM) from LPS-stimulated BV-2 cells treated with compound 3 [28]. This assay was performed following the methods described in our previous study, with slight modifications. To measure neuron viability, BV-2 cells were first seeded and treated with 100 ng/mL LPS in the presence or absence of compound 3. After 24 h, the CM was collected and transferred to N2a cells for a further 24 h. The cell viability of N2a cells was measured using the MTT assay. Well differentiated neuronal cells were used for the experimental purpose as shown in Additional file 1: Fig. S1.
as §1, with “microglia. […]” for “microglia.”

BV-2 cells = experiment: MTT cell viability of LPS-activated BV-2 cells; settings: at 20 µM
Procedure: (§2) […] or MTT assay was performed as described by our previous publication with slight modification. In order to measure MTT and NO production, BV-2 cells were plated into a 96-well plate at a density of 4 × 10^4 cells/well. […] Then, nitrite (a soluble oxidation product of NO) was detected in the culture media by using the Griess reaction. The supernatant (50 µL) was collected and mixed with an equal volume of Griess reagent (1% sulfanilamide in phosphoric acid and 0.1% N-1-napthylethylenediamine dihydrochloride). The absorbance was measured at 570 nm by using a microplate reader. Sodium nitrite was used to create a standard curve from which the NO2 concentration was calculated. The cell viability was evaluated by spectrophotometrically measuring the reduction of yellow 3-[4,5-dimethylthiazol-2-yl]-2,5-diphenyltetrazolium bromide (MTT) to purple formazan crystals. MTT was dissolved in DMEM, added to the culture plate containing cells at a final concentration of 0.5 mg/mL, and incubated for 1 h. The medium containing the MTT solution was carefully removed, and 200 µL DMSO was added to each well. After solubilizing the stained cells to produce a formazan-colored solution, the optical density (OD) was measured on a microplate reader at 570 nm, and the results were expressed as a percentage of the LPS-treated group. The same plate was used for the NO and MTT assays. The cell supernatant was used for the NO assay, and the plated cells were used for the MTT assay.
(§3) The NO production and cell viability of LPS-activated BV-2 cells were measured after treatment with azine derivatives using Griess reagent and MTT assay, respectively.

[2] = MTT cell viability of LPS-activated BV-2 cells; settings: mouse, LPS-activated BV-2 microglial cells; 20 µM compound; percentage of the LPS-only treatment group; mean ± standard deviation, three experiments
Procedure: as §2, §3

COc1cc(/C=C/C=N/N=C/C=C/c2ccc(O)c(OC)c2)ccc1O [Compound 3, 4,4′-(1E,1′E,3E,3′E)-3,3′-(hydrazine-1,2-diylidene)bis(prop-1-ene-1-yl-3-ylidene)bis(2-methoxyphenol)]
Phosphorylation of ERK [1]: did not alter | Microglial cell death against β-amyloid (BV2 cells): significantly prevented | Cell viability of N2a cells against TNF-α mediated toxicity (N2a cells): increased cell viability | Cytotoxicity to BV-2 cells (BV-2 cells): without cytotoxicity | viability at 24 h, 20 µM [2]: 101 ± 2.53%

— PMC5745756, “N,N-disubstituted azines attenuate LPS-mediated neuroinflammation in microglia and neuronal apoptosis via inhibiting MAPK signaling pathways” (BMC Neuroscience, 2017)
